From patent US20230368862A1, “BINDING SITE IN TYPE 2 RYANODINE RECEPTOR” (The Trustees of Columbia University in the City of New York, priority 2021, published 2023)

Experiments:
[1] = target: T1, RyR2-R2474S channels (Mus musculus, UniProt E9Q401, R2473S); assay: SR Ca^2+ leak assay in heart microsomes (Fluo-4); type: biochemical; details: heart microsomes from mice treated with epinephrine and Compound 1 in vivo
T1 construct: Cardiac muscle SR microsomes were prepared by homogenizing heart samples on ice; from tissue; host or cells: heart of Ryr2 R2474S/WT mice (SR microsomes)
Experimental: Ca^2+ leak was measured in microsomes from heart lysates isolated from control Ryr^2R2474S/WT mice, Ryr^2R2474S/WT mice treated with epinephrine, and Ryr^2R2474S/WT mice treated with epinephrine and Compound 1 in EXAMPLE 8. […] Cardiac muscle SR microsomes were prepared by homogenizing heart samples on ice using a Teflon glass homogenizer (50 times) with 2 volumes of 20 mM tris-maleate (pH 7.4), 1 mM EDTA, 1 mM DTT, and protease inhibitors (Roche). Homogenate was then spun by centrifuge at 4000 g for 15 min at 4° C., and the resultant supernatant was spun by centrifuge at 50,000 g for 45 min at 4° C. Pellets were resuspended in lysis buffer containing 300 mM sucrose. Microsomes ([…]) were diluted into a buffer (pH 7.2) containing 8 mM K-phosphocreatine, and creatine kinase (2 U/ml), mixed with 3 μM Fluo-4 and added to multiple wells of a 96-well plate. Ca^2+ loading of the microsomes was initiated by adding 1 mM ATP. After Ca^2+ uptake (50 s), 3 μM thapsigargin was added to inhibit the Ca^2+ reuptake by SERCA. SR Ca^2+ leak was measured by the increase in intensity of the Fluo-4 signal (measured in a Tecan fluorescence plate reader). Ca^2+ leak was quantified as the difference between the average Fluo-4 signal before and after addition of thapsigargin. Graphs were plotted with GraphPad Prism software.

[2] = tested on: Ryr2^R2474S/WT mice; assay: Telemetric electrocardiogram recordings during epinephrine arrhythmia provocation; type: in vivo
Text: Ryr2^R2474S/WT mice were implanted with radio telemetry transmitters (Data Sciences International). Briefly, the transmitter (PhysioTel, ETA-F10 transmitter) was inserted in mice subcutaneously along the back under general anesthesia (5% inhaled isoflurane). Two electrocardiogram (ECG) electrodes were placed hypodermically in the region of the right shoulder (negative pole) and toward the lower left chest (positive pole) to approximate lead II of the Einthoven surface ECG. During the procedure, respiratory and cardiac rhythm, adequacy of anesthetic depth, muscle relaxation, body temperature, and analgesia were monitored to avoid anesthesia-related complications. Postoperative pain was considered during a 1-week post-implantation period, and carprofen (5 mg/kg, subcutaneously) was given. A minimum period of 2 weeks was allowed for recovery from the surgery. Animals were housed in individual stainless-steel cages for telemetry recordings. Environmental parameters were recorded continuously and maintained within a fixed range: room temperature at 15° C. to 21° C. and 45 to 65% relative humidity. The artificial day/night cycle was 12-hour light/12-hour dark with light on at 0700 hours. Drinking water was provided ad libitum. Solid diet ([…]) was given daily in the morning. ECG waveforms were continuously recorded at a sampling rate of 2000 Hz using a signal transmitter-receiver (RPC-1) connected to a data acquisition system (Ponemah system, Data Sciences International). Compound 1 (50 mg/kg per day) was given in drinking water for 2 weeks before ECG recordings. Mice were recorded for 1 hour at baseline and then given epinephrine injection (1 mg/kg, intraperitoneally) and recorded for another 2 hours. The animals used in the study were maintained and studied according to protocols approved by the Institutional Animal Care and Use Committee of Columbia University (reference no. AC-AABP1551).

[3] = target: T2, PKA phosphorylated RyR2-R2474S (Homo sapiens, UniProt Q92736, R2474S); assay: Cryo-EM analysis with normalized difference in RMSD (pairwise domain comparison)
T2 construct: Each fragment was subcloned into a full-length human RYR2 construct in pCMV5 vector; made in house; host or cells: HEK293 (RyR2-R2474S, transient); E. coli BL21(DE3) (GST-calstabin-2)
Experimental: Each of the final samples (3 μl each) prepared in EXAMPLE 5 was applied to UltrAuFoil holey gold grids (Quantifoil R 0.6/1.0, Au 300) previously cleaned with easiGlow (PELCO). Grids were blotted with ashless filter paper (Whatman) using blot force 10 and blot time 8 s before vitrification by plunge-freezing into liquid ethane chilled with liquid nitrogen using Vitrobot Mark IV (Thermo Fisher Scientific) operated at 4° C. with 100% relative humidity.
Prepared grids were screened in-house on a Glacios Cryo-TEM (Thermo Fisher Scientific) microscope with a 200-kV x-FEG source and a Falcon 3EC direct electron detector (Thermo Fisher Scientific). Microscope operations and data collection were carried out using EPU software (Thermo Fisher Scientific). High-resolution data collection was performed at Columbia University on a Titan Krios 300-kV (Thermo Fisher Scientific) microscope equipped with an energy filter (slit width 20 eV) and a K3 direct electron detector (Gatan). Data were collected using Leginon and at a nominal magnification of ×105,000 in electron counting mode, corresponding to a pixel size of 0.83 Å. The electron dose rate was set to 16 e^−/pixel per second with 2.5-s exposures for a total dose of 50 to 60 e/A2.
Cryo-EM data processing was performed in cryoSPARC with image stacks aligned using Patch motion, defocus value estimation by Patch CTF estimation. Particle picking was performed using the template picker with templates created from preexisting cryo-EM maps. Particles were subjected to 2D classification in cryoSPARC with 100 classes. Particles from the highest-resolution classes were pooled for ab initio 3D reconstruction with a single class followed by homogeneous refinement with C4 symmetry imposed. 3D variability and further clustering were performed using a mask comprising the TM domain to separate those particles in the closed and open states followed by heterogeneous refinement with four classes to further select the best particles. C4 symmetry expansion was performed before local refinements. The masks used were TaF+TM+CTD domains (residues 4131 to 4967), calstabin-2+NTD+SPRY domains (residues 1 to 1646), JSol+CSol domains (residues 1700 to 2476, 3590 to 4130), and BSol domain (residues 2400 to 3344). Only the TaF+TM+CTD mask used C4 symmetry. Smaller masks, for a second round of 3D variability analysis, clustering, and local refinement, were RY1&2 (residues 862 to 1076), RY3&4 (residues 2685 to 2909), and BSol2 (residues 3042 to 3344). Local refinements used a dynamical mask with a far distance of 10, 50, and 150 Å for the initial masks, small masks, and expanded RY3&4 mask for comparing the effect of RY3&4 stabilization, respectively. The resulting maps were combined in ChimeraX to generate a composite map before calibration of the pixel size using correlation coefficients with a map generated from the crystal structure of the NTD of RyR2 (PDB ID: 4JKQ). The pixel size was altered by 0.001 Å per step, up to 20 steps in each direction.
An initial model of RYR2 was generated with Phenix tool sculptor from a 2.45-Å structure of RyR1 (PDB ID: 7TZC). Truncated residues were manually corrected to obtain the full side chains. Only domains RY1&2 and RY3&4, which show weak cryo-EM density and confidence in structure, were based on crystallographic structures. The initial model of RyR2 RY1&2 domain was generated with Phenix tool sculptor from the RY1&2 domain of RyR3 with ATP (PDB ID: […]). The model of RyR2 RY3&4 domain was obtained as is (PDB ID: 4ETV). Calstabin-2 and CaM models were obtained as is (PDB ID: 6JI8). Model building was performed in Coot and refined with Phenix tool RealSpaceRefine.
This analysis determined the conformation of a certain query domain from a model X relative to reference closed and open states of RyR2. To this end, the RMSD of Ca of the query domain was measured between model X and the closed state (RMSDX-closed), and between model X and the open state (RMSDX-open). […]

[4] = target: T3, recombinant RyR2 (Homo sapiens, UniProt Q92736); assay: Single channel recordings in planar lipid bilayers (open probability); type: biochemical; details: xanthine 10 μM; Ca2+ 150 nM
T3 construct: expressed in transfected cells; host or cells: HEK293
Experimental: To confirm the functional role of xanthine in RyR2, single-channel experiments were performed. ER vesicles from HEK293 cells expressing RyR2 were prepared by homogenizing cell pellets on ice using a Teflon glass homogenizer with two volumes of solution containing 20 mM tris-maleate (pH 7.4), 1 mM EDTA, 1 mM DTT, and protease inhibitors (Roche). Homogenate was then spun by centrifuge at 4000 g for 15 min at 4° C., and the resulting supernatant was spun by centrifuge at 40,000 g for 30 min at 4° C. The final pellet, containing the ER fractions, was resuspended and aliquoted in 250 mM sucrose, 10 mM Mops (pH 7.4), 1 mM EDTA, 1 mM DTT, and protease inhibitors. Samples were frozen in liquid nitrogen and stored at −80° C.
ER vesicles were fused to planar lipid bilayers formed by painting a lipid mixture of phosphatidylethanolamine and PC (Avanti Polar Lipids) in a 5:3 ratio in decane across a […] in polysulfonate cups (Warner Instruments) separating two chambers. […] The concentration of free Ca^2+ in the cis chamber was calculated as previously described. […] Single-channel currents were recorded at 0 mV using Bilayer Clamp BC-525D (Warner Instruments), filtered at 1 kHz using Low-Pass Bessel Filter 8 Pole (Warner Instruments), and digitized at 4 kHz. […] The recordings were analyzed using Clampfit 10.1 (Molecular Devices) and GraphPad Prism software.

[5] = 50 mg/kg per day in drinking water for 2 weeks, epinephrine 1 mg/kg i.p.
[6] = P-RyR2-R2474S + Cpd1 vs closed/open PKA RyR2, 0 = closed state, 1 = open state

T2 sequence (Q92736 whole entry R2474S, the tested form may be a part): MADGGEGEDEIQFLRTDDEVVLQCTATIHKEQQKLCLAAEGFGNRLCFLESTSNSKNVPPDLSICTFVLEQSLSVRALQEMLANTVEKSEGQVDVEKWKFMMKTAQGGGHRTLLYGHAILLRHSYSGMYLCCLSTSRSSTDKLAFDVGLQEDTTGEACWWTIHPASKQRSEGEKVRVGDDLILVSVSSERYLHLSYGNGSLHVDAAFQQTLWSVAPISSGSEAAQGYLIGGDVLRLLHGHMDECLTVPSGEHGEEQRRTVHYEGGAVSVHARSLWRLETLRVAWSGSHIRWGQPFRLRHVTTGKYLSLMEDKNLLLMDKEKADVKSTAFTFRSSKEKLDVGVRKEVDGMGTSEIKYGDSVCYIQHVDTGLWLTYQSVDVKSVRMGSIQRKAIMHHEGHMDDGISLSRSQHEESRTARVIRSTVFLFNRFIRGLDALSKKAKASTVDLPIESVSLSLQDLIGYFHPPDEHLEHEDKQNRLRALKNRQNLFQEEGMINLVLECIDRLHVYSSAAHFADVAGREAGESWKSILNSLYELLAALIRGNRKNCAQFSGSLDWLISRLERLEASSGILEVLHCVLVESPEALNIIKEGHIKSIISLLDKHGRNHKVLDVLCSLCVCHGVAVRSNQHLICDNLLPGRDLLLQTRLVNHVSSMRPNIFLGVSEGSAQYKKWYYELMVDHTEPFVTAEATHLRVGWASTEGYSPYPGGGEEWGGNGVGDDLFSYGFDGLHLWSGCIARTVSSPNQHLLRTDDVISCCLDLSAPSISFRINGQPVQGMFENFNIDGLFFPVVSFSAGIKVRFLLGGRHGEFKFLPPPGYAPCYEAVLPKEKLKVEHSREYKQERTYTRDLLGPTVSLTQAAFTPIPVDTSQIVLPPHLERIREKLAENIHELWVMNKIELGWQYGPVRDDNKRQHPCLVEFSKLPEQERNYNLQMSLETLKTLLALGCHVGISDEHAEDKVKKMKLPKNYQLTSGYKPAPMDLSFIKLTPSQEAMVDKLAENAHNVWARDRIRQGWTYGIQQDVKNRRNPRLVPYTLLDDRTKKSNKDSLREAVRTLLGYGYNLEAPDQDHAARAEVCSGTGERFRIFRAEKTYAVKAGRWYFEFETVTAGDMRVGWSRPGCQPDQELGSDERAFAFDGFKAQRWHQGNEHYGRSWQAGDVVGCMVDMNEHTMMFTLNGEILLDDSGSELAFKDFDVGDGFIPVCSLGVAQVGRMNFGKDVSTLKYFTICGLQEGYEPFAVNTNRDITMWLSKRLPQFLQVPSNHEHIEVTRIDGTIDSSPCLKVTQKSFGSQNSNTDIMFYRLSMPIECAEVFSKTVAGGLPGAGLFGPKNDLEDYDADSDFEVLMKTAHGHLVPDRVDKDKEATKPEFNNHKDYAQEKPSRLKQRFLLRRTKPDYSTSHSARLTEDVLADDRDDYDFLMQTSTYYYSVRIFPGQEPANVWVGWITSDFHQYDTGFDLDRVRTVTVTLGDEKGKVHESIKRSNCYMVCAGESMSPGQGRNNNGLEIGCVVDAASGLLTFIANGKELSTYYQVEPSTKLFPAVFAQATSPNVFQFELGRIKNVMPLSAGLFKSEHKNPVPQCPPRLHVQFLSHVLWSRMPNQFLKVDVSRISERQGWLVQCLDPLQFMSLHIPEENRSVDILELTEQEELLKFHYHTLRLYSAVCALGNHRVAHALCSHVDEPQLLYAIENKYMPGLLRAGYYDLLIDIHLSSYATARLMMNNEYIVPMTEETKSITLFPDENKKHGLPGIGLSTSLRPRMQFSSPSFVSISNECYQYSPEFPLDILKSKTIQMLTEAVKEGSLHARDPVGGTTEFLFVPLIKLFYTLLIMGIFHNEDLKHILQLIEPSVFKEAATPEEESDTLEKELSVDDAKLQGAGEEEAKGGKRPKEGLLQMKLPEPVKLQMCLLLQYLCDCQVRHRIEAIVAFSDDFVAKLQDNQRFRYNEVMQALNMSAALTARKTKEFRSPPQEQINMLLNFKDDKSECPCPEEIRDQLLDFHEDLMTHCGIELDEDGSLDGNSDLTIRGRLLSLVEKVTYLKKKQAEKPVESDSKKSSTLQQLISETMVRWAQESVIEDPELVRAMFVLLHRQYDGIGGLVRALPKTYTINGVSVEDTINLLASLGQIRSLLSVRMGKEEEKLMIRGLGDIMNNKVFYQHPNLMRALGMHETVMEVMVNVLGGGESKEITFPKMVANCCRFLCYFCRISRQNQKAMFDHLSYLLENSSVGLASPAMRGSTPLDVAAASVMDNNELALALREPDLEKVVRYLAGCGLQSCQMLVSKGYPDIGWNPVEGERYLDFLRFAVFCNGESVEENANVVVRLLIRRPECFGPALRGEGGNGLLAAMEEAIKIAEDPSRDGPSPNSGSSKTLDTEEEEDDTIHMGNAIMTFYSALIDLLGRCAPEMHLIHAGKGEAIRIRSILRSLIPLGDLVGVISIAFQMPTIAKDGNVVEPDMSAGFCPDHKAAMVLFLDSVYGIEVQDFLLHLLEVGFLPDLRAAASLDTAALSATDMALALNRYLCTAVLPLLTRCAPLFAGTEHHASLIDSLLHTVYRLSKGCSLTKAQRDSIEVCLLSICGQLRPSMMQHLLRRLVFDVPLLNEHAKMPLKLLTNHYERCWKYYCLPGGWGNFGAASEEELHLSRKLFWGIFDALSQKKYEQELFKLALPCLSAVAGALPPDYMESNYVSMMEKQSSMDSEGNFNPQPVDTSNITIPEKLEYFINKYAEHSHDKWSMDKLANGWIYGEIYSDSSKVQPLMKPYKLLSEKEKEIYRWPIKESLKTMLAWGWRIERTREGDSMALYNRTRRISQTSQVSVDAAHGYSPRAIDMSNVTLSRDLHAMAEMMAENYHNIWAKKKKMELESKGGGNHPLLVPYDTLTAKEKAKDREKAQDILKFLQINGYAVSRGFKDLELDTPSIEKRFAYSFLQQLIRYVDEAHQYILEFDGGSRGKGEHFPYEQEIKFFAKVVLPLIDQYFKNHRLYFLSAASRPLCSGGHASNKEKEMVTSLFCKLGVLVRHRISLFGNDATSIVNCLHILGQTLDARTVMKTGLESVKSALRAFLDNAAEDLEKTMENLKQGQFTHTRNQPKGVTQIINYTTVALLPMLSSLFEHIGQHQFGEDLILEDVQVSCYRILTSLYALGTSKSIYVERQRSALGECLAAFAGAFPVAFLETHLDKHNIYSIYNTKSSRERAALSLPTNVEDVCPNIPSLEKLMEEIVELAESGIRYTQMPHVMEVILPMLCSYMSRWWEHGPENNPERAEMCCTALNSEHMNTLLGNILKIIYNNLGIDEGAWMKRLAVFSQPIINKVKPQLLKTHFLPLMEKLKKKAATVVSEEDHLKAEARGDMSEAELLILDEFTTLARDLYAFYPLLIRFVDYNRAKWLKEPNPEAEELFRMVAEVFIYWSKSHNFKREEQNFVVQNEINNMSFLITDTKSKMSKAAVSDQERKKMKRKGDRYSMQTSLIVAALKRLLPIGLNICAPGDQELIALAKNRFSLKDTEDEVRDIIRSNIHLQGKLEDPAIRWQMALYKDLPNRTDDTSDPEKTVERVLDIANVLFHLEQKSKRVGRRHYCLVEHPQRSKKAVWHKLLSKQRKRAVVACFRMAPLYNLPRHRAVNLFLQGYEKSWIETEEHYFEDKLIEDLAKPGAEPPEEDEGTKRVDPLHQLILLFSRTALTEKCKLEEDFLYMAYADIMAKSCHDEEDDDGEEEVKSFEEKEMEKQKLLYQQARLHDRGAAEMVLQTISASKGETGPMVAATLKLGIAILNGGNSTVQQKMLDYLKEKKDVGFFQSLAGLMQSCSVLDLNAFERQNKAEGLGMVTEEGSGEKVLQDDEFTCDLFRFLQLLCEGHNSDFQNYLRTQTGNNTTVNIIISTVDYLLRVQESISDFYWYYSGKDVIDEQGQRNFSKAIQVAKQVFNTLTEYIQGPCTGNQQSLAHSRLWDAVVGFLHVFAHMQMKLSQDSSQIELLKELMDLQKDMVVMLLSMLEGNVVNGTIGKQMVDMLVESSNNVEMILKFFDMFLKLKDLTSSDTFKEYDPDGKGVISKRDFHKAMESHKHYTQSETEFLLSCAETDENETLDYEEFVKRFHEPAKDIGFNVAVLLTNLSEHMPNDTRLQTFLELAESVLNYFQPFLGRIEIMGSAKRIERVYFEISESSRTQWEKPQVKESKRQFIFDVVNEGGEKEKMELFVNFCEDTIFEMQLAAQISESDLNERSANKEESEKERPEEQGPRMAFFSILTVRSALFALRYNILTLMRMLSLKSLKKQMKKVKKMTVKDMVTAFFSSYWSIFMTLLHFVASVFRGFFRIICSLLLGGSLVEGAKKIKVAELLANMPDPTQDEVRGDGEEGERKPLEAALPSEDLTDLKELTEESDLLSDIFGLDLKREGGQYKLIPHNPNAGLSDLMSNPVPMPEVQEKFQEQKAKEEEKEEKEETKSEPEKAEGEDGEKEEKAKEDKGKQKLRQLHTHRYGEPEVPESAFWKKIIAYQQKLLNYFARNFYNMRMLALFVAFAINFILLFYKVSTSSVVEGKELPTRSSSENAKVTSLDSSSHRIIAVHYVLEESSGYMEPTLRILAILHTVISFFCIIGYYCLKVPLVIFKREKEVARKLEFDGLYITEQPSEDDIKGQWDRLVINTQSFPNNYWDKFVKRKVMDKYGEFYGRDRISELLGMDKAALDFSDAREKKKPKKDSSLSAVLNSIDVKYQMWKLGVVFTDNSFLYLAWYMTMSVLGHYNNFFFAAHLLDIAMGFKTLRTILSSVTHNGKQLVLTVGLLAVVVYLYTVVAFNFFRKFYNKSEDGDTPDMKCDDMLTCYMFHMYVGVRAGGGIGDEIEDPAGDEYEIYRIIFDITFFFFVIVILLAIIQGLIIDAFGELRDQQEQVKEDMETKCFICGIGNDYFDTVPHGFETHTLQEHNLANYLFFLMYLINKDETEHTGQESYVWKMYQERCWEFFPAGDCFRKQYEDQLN
T2 sequence (P68106 whole entry partner, the tested form may be a part): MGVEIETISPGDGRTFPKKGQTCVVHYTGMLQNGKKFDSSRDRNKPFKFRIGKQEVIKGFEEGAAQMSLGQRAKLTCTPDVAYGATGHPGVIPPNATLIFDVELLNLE
T3 sequence (Q92736 whole entry): as the sequence (Q92736 whole entry R2474S, the tested form may be a part) above, with S2474R counted along it

COc1ccc2c(c1)CN(Cc1ccc(C(=O)O)cc1)CCS2 [Compound 1]
SR Ca^2+ leak (increase in Fluo-4 signal after thapsigargin) [1]: prevented SR Ca^2+ leak | frequency of ventricular tachycardia [2, 5]: reduced the frequency of ventricular tachycardia | sudden cardiac death (SCD) [2, 5]: prevented sudden cardiac death | sustained ventricular tachycardia (sVT) ([2]; 50 mg/kg/day in drinking water, epinephrine 1 mg/kg): prevented sVT | effect on the primed state of PKA-phosphorylated RyR2-R2474S (cryo-EM structure comparison) ([3]; 10 mM ATP, 150 nM free Ca2+, 500 μM xanthine): partially reversed the primed state | Normalized difference in RMSD, BSol [3, 6]: 0.32 | Normalized difference in RMSD, BSol2 [3, 6]: 0.40 | Normalized difference in RMSD, NTD [3, 6]: 0.42 | Normalized difference in RMSD, SPRY [3, 6]: 0.41 | reduction toward the closed state in RMSD analysis compared to primed PKA-phosphorylated RyR2-R2474S ([3]; in some domains): more than 50% | RMSD Cα BSol, P-RyR2-R2474S + Cpd1 (PDB:7UA1) vs P-RyR2-C (PDB:7U9Q) ([3]; vs closed PKA RyR2): 1.61 ± Å | RMSD Cα NTD, P-RyR2-R2474S + Cpd1 (PDB:7UA1) vs P-RyR2-C (PDB:7U9Q) ([3]; vs closed PKA RyR2): 1.20 ± Å | RMSD Cα SPRY, P-RyR2-R2474S + Cpd1 (PDB:7UA1) vs P-RyR2-C (PDB:7U9Q) ([3]; vs closed PKA RyR2): 0.88 ± Å | RMSD Cα BSol2, P-RyR2-R2474S + Cpd1 (PDB:7UA1) vs P-RyR2-C (PDB:7U9Q) ([3]; vs closed PKA RyR2, 10 mM NaATP, 500 μM xanthine, 150 nM free Ca2+): 3.08 ± Å | RMSD Cα CSol, P-RyR2-R2474S + Cpd1 (PDB:7UA1) vs P-RyR2-C (PDB:7U9Q) ([3]; vs closed PKA RyR2, aligned control domain, used as error): 0.53 Å | RMSD Cα BSol2, P-RyR2-R2474S + Cpd1 (PDB:7UA1) vs P-RyR2-O (PDB:7U9R) ([3]; vs open PKA RyR2): 4.63 ± Å | RMSD Cα BSol, P-RyR2-R2474S + Cpd1 (PDB:7UA1) vs P-RyR2-O (PDB:7U9R) ([3]; vs open PKA RyR2): 3.36 ± Å | RMSD Cα NTD, P-RyR2-R2474S + Cpd1 (PDB:7UA1) vs P-RyR2-O (PDB:7U9R) ([3]; vs open PKA RyR2): 1.66 ± Å | RMSD Cα SPRY, P-RyR2-R2474S + Cpd1 (PDB:7UA1) vs P-RyR2-O (PDB:7U9R) ([3]; vs open PKA RyR2): 1.25 ± Å | RMSD Cα CSol, P-RyR2-R2474S + Cpd1 (PDB:7UA1) vs P-RyR2-O (PDB:7U9R) ([3]; vs open PKA RyR2, aligned control domain, used as error): 0.41 Å

O=c1[nH]c(=O)c2[nH]cnc2[nH]1 [xanthine]
increase in the open probability of RyR2 [4]: ~25 fold
